Here are results for five molecules from patent US7153676B1, “Transacylases of the paclitaxel biosynthetic pathway” (priority 1999, dated 2006).

The test system of assay [1] is acetyl CoA:taxadien-5α-ol O-acetyl transacylase. Particulars: cited from earlier work; for acetylation by the enzyme (substrate selectivity): more advanced paclitaxel precursors; for Km: cosubstrate of the taxadienol acetyl transacylase.
In assay [2] the target is T1, 10-deacetylbaccatin III-10-O-acetyl transferase (TAX6) (Taxus cuspidata, UniProt Q9M6E2).
T1 construct: to amplify the putative full-length acetyl transferase gene and incorporate NdeI and XbaI restriction sites; made in house; host or cells: E. coli JM109 (pCWori+)
T1 sequence (Q9M6E2 1-440): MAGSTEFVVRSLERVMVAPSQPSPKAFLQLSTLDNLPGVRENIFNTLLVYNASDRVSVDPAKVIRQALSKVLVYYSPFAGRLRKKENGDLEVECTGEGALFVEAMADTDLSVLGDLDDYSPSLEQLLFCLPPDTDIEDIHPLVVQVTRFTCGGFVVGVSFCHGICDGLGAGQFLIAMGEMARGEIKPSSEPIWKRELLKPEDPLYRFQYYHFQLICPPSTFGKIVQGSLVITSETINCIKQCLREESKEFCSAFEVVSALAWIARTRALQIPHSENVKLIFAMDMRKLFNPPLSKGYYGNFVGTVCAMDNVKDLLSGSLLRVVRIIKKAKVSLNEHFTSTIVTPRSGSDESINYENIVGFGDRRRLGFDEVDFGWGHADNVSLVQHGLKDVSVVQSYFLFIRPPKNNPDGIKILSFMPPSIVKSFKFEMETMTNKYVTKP
The assay is classed as biochemical. To be noted: for conversion/acetylation of substrate by TAX6: 10-hydroxyl of 10-deacetylbaccatin III, 5α-hydroxyl of taxadienol. How it is done: For the enzyme preparation, E. coli cells transformed with the pCWori+ vector harboring the putative DBAT gene were grown overnight at 37° C. in 5 mL Luria-Bertani medium supplemented with ampicillin, and 1 mL of this inoculum was added to and grown in 100 mL Terrific Broth culture medium (6 g bacto-tryptone, Difco Laboratories, Spark, Md., 12 g yeast extract, EM Science, Cherryhill, N.J., and 2 mL gycerol in 500 mL water) supplemented with 1 mM IPTG, 1 mM thiamine HCl and 50 μg ampicillin/mL. After 24 hours, the bacteria were harvested by centrifugation, resuspended in 20 mL of assay buffer (25 mM Mopso, pH 7.4) and then disrupted by sonication at 0–4° C. The resulting homogenate was centrifuged at 15,000 g to remove debris, and a 1 mL aliquot of the supernatant was incubated with 10-deacetylbaccatin III (400 μM) and [2-^3H]acetyl coenzyme A (0.45μCi, 400 μM) for 1 hour at 31° C. The reaction mixture was extracted with ether and the solvent concentrated in vacuo. The crude product (pooled from five such assays) was purified by silica gel thin-layer chromatography (TLC; 70:30 ethyl acetate:hexane).
The activity of TAX6 (SEQ ID NO: 45) was assayed under standard conditions described in Walker et al., Arch. Biochem. Biophys.

“And” between values parts separate entries of the source, which are not always exact repeats. Equal entries are not always repeated.

`CC(C)(COP(=O)(O)OP(=O)(O)OC[C@H]1O[C@@H](n2cnc3c(N)ncnc32)[C@H](O)[C@@H]1OP(=O)(O)O)[C@@H](O)C(=O)NCCC(=O)NCCS` [Co-enzyme A]: in assay [1], the “inhibition of the enzyme” value is “only weakly inhibited”.
Consider `CC(=O)O[C@H]1C(=O)[C@@]2(C)[C@H]([C@H](OC(=O)c3ccccc3)[C@]3(O)C[C@H](O)C(C)=C1C3(C)C)[C@]1(OC(C)=O)CO[C@@H]1C[C@@H]2O` [baccatin III], for which the “acetylation by the enzyme (substrate selectivity)” value in assay [1] is reported as “does not acetylate”.
For orientation: Km means the substrate concentration at which the rate is half of its maximum. Regarding `CC(=O)SCCNC(=O)CCNC(=O)[C@H](O)C(C)(C)COP(=O)(O)OP(=O)(O)OC[C@H]1O[C@@H](n2cnc3c(N)ncnc32)[C@H](O)[C@@H]1OP(=O)(O)O` [acetyl CoA], the Km in assay [1] was 5.5 µM and 6 µM.
For `CC(=O)O[C@@]12CO[C@@H]1C[C@H](O)[C@@]1(C)C(=O)[C@H](O)C3=C(C)[C@@H](O)C[C@@](O)([C@@H](OC(=O)c4ccccc4)[C@H]21)C3(C)C` [10-deacetylbaccatin III], in assay [2], the Michaelis constant (Km) is 10 µM and the “conversion/acetylation of substrate by TAX6” value is given as “catalyze the conversion”. In addition, the “acetylation of the 1β-, 7β-, or 13α-hydroxyl groups by TAX6” value in assay [2] (regioselectivity) is listed as “does not acetylate”. The “acetylation by the enzyme (substrate selectivity)” value in assay [1] was “does not acetylate”.
Consider `C=C1[C@H]2C[C@@H]3CCC(C)=C(CC[C@]2(C)CC[C@@H]1O)C3(C)C` [taxadienol, taxa-4(20),11(12)-dien-5α-ol], for which, in assay [2], the “conversion/acetylation of substrate by TAX6” value is listed as “nor does it acetylate”. Also, the Km in assay [1] was 4.2 µM and 4 µM.
